Key:
[1] = system: P2X7-mediated CD23 shedding; experiment: CD23 shedding assay in RPMI8226 cells; type: cell-based, human
Procedure: CD23 shedding from RPMI8226 cells was conducted as described, except using LDM. Briefly, 1 × 10^6 cells in LDM were added to individual tubes and pre-incubated in the absence or presence of compound (or vehicle) (37 °C, 15 min). […] Cells were stained in the absence or presence of anti-CD23 mAb with 7AAD (on ice, 30 min, dark), washed once with D-PBS and data were collected using an LSR Fortessa X-20 flow cytometer. CD23 MFI on live cells was determined using FlowJo, with CD23 expression defined as the difference in MFI between cells stained in the presence or absence of anti-CD23 mAb. ATP-induced shedding was normalised to the maximal ATP-induced response in each experiment.

[2] = biological target: T1, hP2X7 (Homo sapiens, UniProt Q99572); experiment: ATP-induced ethidium+ uptake in stably transfected HEK-hP2X7 cells (flow cytometry); type: cell-based; details: for EC50: EC50 of ATP; for maximum ATP response, ethidium+ uptake: increasing ATP
T1 construct: expressed in transfected cells; host or cells: HEK293 cells, stably transfected (HEK-hP2X7)
T1 sequence (Q99572 1-595): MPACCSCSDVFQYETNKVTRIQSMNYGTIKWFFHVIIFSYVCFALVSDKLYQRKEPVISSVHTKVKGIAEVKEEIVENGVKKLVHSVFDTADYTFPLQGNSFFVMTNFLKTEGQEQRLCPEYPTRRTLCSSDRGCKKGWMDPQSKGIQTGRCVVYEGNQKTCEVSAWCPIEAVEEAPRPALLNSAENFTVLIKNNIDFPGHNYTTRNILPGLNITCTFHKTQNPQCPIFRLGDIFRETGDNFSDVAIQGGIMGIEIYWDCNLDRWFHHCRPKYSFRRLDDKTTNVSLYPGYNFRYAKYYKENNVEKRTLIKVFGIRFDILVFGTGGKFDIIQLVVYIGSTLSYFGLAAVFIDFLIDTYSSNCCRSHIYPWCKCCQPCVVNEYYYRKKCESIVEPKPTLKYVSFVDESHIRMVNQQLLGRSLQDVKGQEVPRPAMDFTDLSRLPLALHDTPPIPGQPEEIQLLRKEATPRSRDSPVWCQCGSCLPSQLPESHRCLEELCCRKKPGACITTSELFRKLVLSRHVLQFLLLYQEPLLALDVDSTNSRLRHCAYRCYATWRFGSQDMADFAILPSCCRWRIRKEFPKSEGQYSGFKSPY

[3] = biological target: T2, endogenous hP2X7 (Homo sapiens, UniProt Q99572); experiment: ATP-induced ethidium+ uptake in RPMI8226 multiple myeloma cells (flow cytometry); type: cell-based
T2 construct: endogenous in cells; host or cells: RPMI8226 cells
T2 sequence (Q99572 1-595): T1 sequence (Q99572 1-595)

[4] = biological target: T3, mP2X7 (Mus musculus, UniProt Q9Z1M0); experiment: ATP-induced ethidium+ uptake in transfected HEK-mP2X7 cells; type: cell-based, murine
T3 construct: expressed in transfected cells; host or cells: HEK293 cells, transient transfection, GFP+ cells gated
T3 sequence (Q9Z1M0 1-595): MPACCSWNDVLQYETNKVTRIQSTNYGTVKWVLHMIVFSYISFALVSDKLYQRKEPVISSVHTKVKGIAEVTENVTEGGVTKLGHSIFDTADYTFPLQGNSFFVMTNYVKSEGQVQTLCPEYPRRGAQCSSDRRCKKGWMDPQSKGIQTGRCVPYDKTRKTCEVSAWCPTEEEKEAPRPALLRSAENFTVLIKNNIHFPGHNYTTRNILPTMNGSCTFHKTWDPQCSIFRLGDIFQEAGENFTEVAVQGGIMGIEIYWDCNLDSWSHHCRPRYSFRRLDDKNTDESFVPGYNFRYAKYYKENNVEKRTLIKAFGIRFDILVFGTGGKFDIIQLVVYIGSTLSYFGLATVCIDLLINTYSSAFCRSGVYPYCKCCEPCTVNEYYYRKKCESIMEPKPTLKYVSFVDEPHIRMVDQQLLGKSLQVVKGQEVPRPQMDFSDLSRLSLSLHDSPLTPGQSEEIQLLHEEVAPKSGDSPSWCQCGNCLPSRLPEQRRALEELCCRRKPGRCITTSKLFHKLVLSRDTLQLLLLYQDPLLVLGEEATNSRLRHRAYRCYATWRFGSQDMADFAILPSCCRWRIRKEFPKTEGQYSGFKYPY
Procedure: HEK293 cells were plated at 3.5 × 10^5 cells/well in 2 mL of complete DMEM/F12 medium and incubated (37 °C, 95% air/5% CO2, overnight). Cells were transfected with mP2X7-GFP (HEK-mP2X7), cP2X7-GFP (HEK-cP2X7) or hP2X4-EmGFP (HEK-hP2X4) plasmids, or mock transfected with an equivalent volume of sterile Milli-Q water (Merck Millipore, Burlington, NJ, USA), using Lipofectamine 3000 according to the manufacturer’s instructions. Cells were used for assays 48 h post-transfection. To determine transfection efficiency, cells were washed twice with D-PBS and data collected with an LSR Fortessa X-20 flow cytometer (BD Biosciences). The proportion of GFP positive cells was determined using FlowJo software v8.7.1 (BD Biosciences).
ATP-mediated uptake assays were conducted as described with either ethidium bromide or YO-PRO-1 iodide. Briefly, RPMI8226, HEK-hP2X7, HEK-mP2X7, HEK-cP2X7 or cryopreserved human peripheral blood mononuclear cells (PBMCs) were washed thrice with LDM (300× g, 5 min), resuspended in LDM and 1 × 10^6 cells were added to individual tubes. Cells were pre-incubated in the absence of compound (37 °C, 5 min) or in the presence of compound or vehicle (DMSO) (37 °C, 15 min) as indicated. […] An equal volume of ice-cold Mg^2+ stop solution was added and cells centrifuged (300× g, 5 min). Cells were washed twice in LDM (300× g, 5 min), resuspended and data were collected with an LSR Fortessa X-20 flow cytometer. MFI of ethidium^+ or YO-PRO-1^2+ was determined using FlowJo.

[5] = read-out: IC50, hP2X7-mediated dye uptake

Nc1ncnc2c1ncn2[C@@H]1O[C@H](COP(=O)(O)OP(=O)(O)OP(=O)(O)O)[C@@H](O)[C@H]1O [ATP, adenosine 5′-triphosphate]
EC50 ([1]; Homo sapiens, RPMI-8226, read-out: EC50 of ATP, CD23 shedding, RPMI8226 cells): 112 ± 28 µM | ATP concentration giving maximal CD23 shedding ([1]; RPMI8226 cells): 200 µM | EC50 ([2]; ethidium+ uptake, HEK-hP2X7 cells, no antagonist (Figure 2C)): 466 ± 17 µM | EC50 ([2]; ethidium+ uptake, in presence of 0.3 μM 6-FPHMA): 464 ± 52 µM | EC50 ([2]; ethidium+ uptake, in presence of 3 μM 6-FPHMA): 517 ± 49 µM | EC50 ([2]; ethidium+ uptake, in presence of 30 μM 6-FPHMA): 557 ± 47 µM | EC50 ([2]; ethidium+ uptake, pre-incubated with DMSO vehicle (Figure 2E)): 419 ± 24 µM | EC50 ([3]; RPMI8226 cells, no antagonist): 311 ± 21 µM | EC50 ([4]; GFP+ HEK-mP2X7 cells): 364 ± 48 µM | ATP concentration giving maximum response, ethidium+ uptake ([4]; HEK-mP2X7 cells): 2 mM

N=C(N)NC(=O)c1nc(-c2cc3cnccc3o2)c(N2CCCCCC2)nc1N [6-FPHMA, 6-furopyridine-substituted 5-(N,N-hexamethylene) amiloride]
blockade of ATP-induced CD23 shedding ([1]; 30 μM compound, 200 μM ATP): 97% | IC50 ([1]; Homo sapiens, RPMI-8226, read-out: IC50, ATP-induced CD23 shedding): 2.3 ± 0.5 µM | maximum ATP response, ethidium+ uptake ([2]; 0.3 μM 6-FPHMA): 90 ± 4% | maximum ATP response, ethidium+ uptake ([2]; 3 μM 6-FPHMA): 52 ± 3% | maximum ATP response, ethidium+ uptake ([2]; 30 μM 6-FPHMA): 13 ± 1% | blockade of hP2X7-mediated dye uptake ([2]; 100 μM compound, 450 μM ATP, HEK-hP2X7 cells): 95% | mode of inhibition ([2]; ethidium+ uptake, HEK-hP2X7 cells): non-competitive | IC50 [2, 5]: 1.63 ± 0.42 µM | blockade of hP2X7-mediated dye uptake ([3]; 30 μM compound, 300 μM ATP, RPMI8226 cells): 100% | IC50 [3, 5]: 0.58 ± 0.05 µM | blockade of mP2X7-mediated dye uptake ([4]; 100 μM compound, 360 μM ATP): 96% | activity against murine P2X7 relative to hP2X7 and cP2X7 ([4]; comparison of IC50 values): ten-fold less active | IC50 ([4]; read-out: IC50, mP2X7-mediated dye uptake): 23 ± 2.4 µM

— paper PMC9496321, “6-Furopyridine Hexamethylene Amiloride Is a Non-Selective P2X7 Receptor Antagonist” (Biomolecules, 2022)
